The subject of one test is Aspergillus niger. Nature of the test: Antifungal activity against Aspergillus niger by agar plate disk diffusion method. The test is classed as functional.
The test system of a further test is Pseudomonas aeruginosa. Nature of the test: Antimicrobial activity against Pseudomonas aeruginosa by agar plate disk diffusion method. The test is classed as functional.
The subject of the next test is Streptococcus pyogenes. In words: Antimicrobial activity against Streptococcus pyogenes by agar plate disk diffusion method. The test is classed as functional. On the technique in general: In agar diffusion tests the substance spreads into inoculated agar from a disc or well.
The subject of the next test is Staphylococcus aureus. Nature of the test: Antimicrobial activity against Staphylococcus aureus by agar plate disk diffusion method. The test is classed as functional.
Another test concerns Escherichia coli. Nature of the test: Antimicrobial activity against Escherichia coli by agar plate disk diffusion method. Format: functional.
Another test concerns HEK-293T. Nature of the test: Cytotoxicity against human HEK293T cells by MTT assay. The test is classed as functional, cell-based. On the technique in general: Tetrazolium dyes change colour on reduction, which living cells bring about.
A further test has as its system HL-60. Nature of the test: Cytotoxicity against human HL60 cells by MTT assay. The test is classed as functional, cell-based.
The next test deals with HEp-2. In words: Cytotoxicity against human Hep2 cells by MTT assay. Format: functional, cell-based.

≈ marks a conversion by molar mass, not a printed value. Some results are limits rather than exact numbers.

In turn, `COC1=CC(=O)C[C@@H](C)[C@]12Oc1c(Cl)c(OC)cc(OC)c1C2=O` [GRISEOFULVIN] had an MIC with Aspergillus niger of 100 µg/mL (≈ 283 µM).

In the case of `O=C(N[C@H](CO)[C@H](O)c1ccc([N+](=O)[O-])cc1)C(Cl)Cl` [CHLORAMPHENICOL], the MIC in the test with Pseudomonas aeruginosa, with Streptococcus pyogenes, in the test with Staphylococcus aureus and with Escherichia coli was 50 µg/mL (≈ 155 µM) each time.

On to `Cc1ccc2c(Cc3c4ccccc4nc4ccccc34)cc(=O)oc2c1`, for which the IC50 in the test with HEK-293T, in the test on HL-60 and with HEp-2 was greater than 100 µM throughout. The MIC stood at 62.5 µg/mL (≈ 178 µM) against Pseudomonas aeruginosa; 50 µg/mL (≈ 142 µM) in the test on Streptococcus pyogenes; 500 µg/mL (≈ 1420 µM) in the test on Staphylococcus aureus; 1000 µg/mL (≈ 2850 µM) with Aspergillus niger; 150 µg/mL (≈ 427 µM) against Escherichia coli.

In the case of `O=c1cc(Cc2c3ccccc3nc3ccccc23)c2cc(Cl)ccc2o1`, the half-inhibitory concentration (IC50) in the test on HEK-293T was greater than 100 µM; in the test on HL-60 it was 28.7 µM; with HEp-2, greater than 100 µM. Moreover, the MIC came out at 25 µg/mL (≈ 67.2 µM) against Pseudomonas aeruginosa; 75 µg/mL (≈ 202 µM) against Streptococcus pyogenes; 250 µg/mL (≈ 672 µM) in the test with Staphylococcus aureus; 1000 µg/mL (≈ 2690 µM) with Aspergillus niger; 75 µg/mL (≈ 202 µM) against Escherichia coli.

As for `O=C(O)c1cn(C2CC2)c2cc(N3CCNCC3)c(F)cc2c1=O` [CIPROFLOXACIN], the figures for the MIC against Streptococcus pyogenes, against Staphylococcus aureus and against Escherichia coli were 50 µg/mL (≈ 151 µM), 50 µg/mL (≈ 151 µM) and 25 µg/mL (≈ 75.4 µM), respectively.

As to `O=P1(N(CCCl)CCCl)NCCCO1` (stereo not drawn) [CYCLOPHOSPHAMIDE ANHYDROUS], the IC50 is greater than 100 µM in the test with HEK-293T, 8.79 µM with HL-60 and greater than 100 µM in the test on HEp-2.

For the compound `CC1(C)S[C@@H]2[C@H](NC(=O)[C@H](N)c3ccccc3)C(=O)N2[C@H]1C(=O)O` [AMPICILLIN], the minimal inhibitory concentration (MIC) worked out at 100 µg/mL (≈ 286 µM) in the test with Pseudomonas aeruginosa, 100 µg/mL (≈ 286 µM) in the test on Streptococcus pyogenes, 250 µg/mL (≈ 715 µM) with Staphylococcus aureus and 100 µg/mL (≈ 286 µM) in the test on Escherichia coli.

For the compound `CCn1cc(C(=O)O)c(=O)c2cc(F)c(N3CCNCC3)cc21` [NORFLOXACIN], the minimum inhibitory concentration (MIC) against Pseudomonas aeruginosa, against Streptococcus pyogenes, in the test with Staphylococcus aureus and with Escherichia coli was 10 µg/mL (≈ 31.3 µM) throughout.

Consider `O=c1cc(Cc2c3ccccc3nc3ccccc23)c2ccc([N+](=O)[O-])cc2o1`, for which the 50% inhibitory concentration (IC50) with HEK-293T, in the test on HL-60 and in the test on HEp-2 was greater than 100 µM each time. Further, the MIC stood at 200 µg/mL (≈ 523 µM) with Pseudomonas aeruginosa; 500 µg/mL (≈ 1310 µM) in the test on Streptococcus pyogenes; 250 µg/mL (≈ 654 µM) against Staphylococcus aureus; 500 µg/mL (≈ 1310 µM) with Aspergillus niger; 100 µg/mL (≈ 262 µM) against Escherichia coli.

As for NYSTATIN, it took 100 µg/mL to inhibit growth in the test with Aspergillus niger (MIC).

For the compound `O=c1cc(Cc2c3ccccc3nc3ccccc23)c2ccccc2o1`, the IC50 with HEK-293T, in the test on HL-60 and with HEp-2 was greater than 100 µM in each case. The minimal inhibitory concentration (MIC) stood at 250 µg/mL (≈ 741 µM) against Pseudomonas aeruginosa; 250 µg/mL (≈ 741 µM) in the test with Streptococcus pyogenes; 250 µg/mL (≈ 741 µM) in the test on Staphylococcus aureus; 500 µg/mL (≈ 1480 µM) against Aspergillus niger; 250 µg/mL (≈ 741 µM) against Escherichia coli.

For the compound `Cc1ccc2oc(=O)cc(Cc3c4ccccc4nc4ccccc34)c2c1`, the half-maximal inhibitory concentration (IC50) in the test with HEK-293T, in the test with HL-60 and in the test on HEp-2 was greater than 100 µM each time. Moreover, the MIC came out at 125 µg/mL (≈ 356 µM) against Pseudomonas aeruginosa; 100 µg/mL (≈ 285 µM) in the test on Streptococcus pyogenes; 125 µg/mL (≈ 356 µM) against Staphylococcus aureus; 500 µg/mL (≈ 1420 µM) against Aspergillus niger; 125 µg/mL (≈ 356 µM) against Escherichia coli.

Consider `O=c1cc(Cc2c3ccccc3nc3ccccc23)c2cc(O)ccc2o1`, for which the IC50 with HEK-293T, in the test on HL-60 and with HEp-2 was greater than 100 µM throughout. Also, the minimum inhibitory concentration (MIC) against Pseudomonas aeruginosa turned out to be 100 µg/mL (≈ 283 µM); against Streptococcus pyogenes it was 250 µg/mL (≈ 707 µM); against Staphylococcus aureus, 500 µg/mL (≈ 1410 µM); against Escherichia coli, 50 µg/mL (≈ 141 µM).

Take `O=c1cc(Cc2c3ccccc3nc3ccccc23)c2ccc(O)cc2o1`: the IC50 in the test with HEK-293T, in the test on HL-60 and with HEp-2 was greater than 100 µM in each case. Besides, the minimum inhibitory concentration (MIC) is 250 µg/mL (≈ 707 µM) against Pseudomonas aeruginosa; 500 µg/mL (≈ 1410 µM) against Streptococcus pyogenes; 500 µg/mL (≈ 1410 µM) in the test on Staphylococcus aureus; greater than 1000 µg/mL against Aspergillus niger; 200 µg/mL (≈ 566 µM) in the test on Escherichia coli.

With `O=c1cc(Cc2c3ccccc3nc3ccccc23)c2ccc(Cl)cc2o1`, the IC50 with HEK-293T was greater than 100 µM; in the test on HL-60, 27.5 µM; with HEp-2 it was greater than 100 µM. Besides, the minimal inhibitory concentration (MIC) amounted to 500 µg/mL (≈ 1340 µM) in the test on Pseudomonas aeruginosa; 250 µg/mL (≈ 672 µM) in the test with Streptococcus pyogenes; 50 µg/mL (≈ 134 µM) in the test on Staphylococcus aureus; 1000 µg/mL (≈ 2690 µM) against Aspergillus niger; 50 µg/mL (≈ 134 µM) in the test on Escherichia coli.

In general, MIC refers to the least concentration at which growth counts as inhibited. In general, IC50 refers to the concentration needed to halve the response being measured. A higher IC50 goes with weaker potency.

The record behind these values is ChEMBL document CHEMBL1268823, “Bernthsen synthesis, antimicrobial activities and cytotoxicity of acridine derivatives” (Bioorg Med Chem Lett, 2010).
